Consider six molecules from patent US20080194491A1, “Methods of Diagnosing, Preventing, and Treating Early Onset of Pulmonary Hypertension” (priority 2002, published 2008).

One test concerns T-lymphocyte cell line. The settings on record: cited from earlier work.
In another test the test system is motoneurons. The settings on record: in vitro and in vivo; cited from earlier work.
The next test has as its system mammary epithelial cells. The settings on record: absence of extracellular matrix; cited from earlier work.
The test system of another test is lung apoptosis after MCT. Description: Early caspase inhibition after MCT: lung apoptosis by TUNEL assay. In kind it is in vivo, Rats. The procedure: The methods set out in Example 3 were employed. In this set of experiments, the inventors tried to establish the effect of apoptosis inhibitors on the early development of the apoptotic pathways. They blocked the caspase activity at a much earlier time point (18 hours post MCT injection and another injection 24 hours after that) using two classes of caspase inhibitors, namely Z-Asp (2.5 mg/Kg) and Z-VAD (1.5 mg/Kg; see FIG. 10 for details). Rats were sacrificed 24, 48 and 72 hours post last dose of inhibitors/DMSO injection and lungs were collected for histology and activity assay. Apoptosis were measured by both TUNEL and caspase activity assays, as previously described.

In test [1] the test system is Human pulmonary artery cells (HPAEC). The experiment in a line: HPAEC apoptosis induced by TNF (caspase activity assay). In kind it is cell-based. The note with it: pretreatment 100-200 ng/ml for 2 hours, TNF 10-20 ng/ml. Here is the method:
(§1) The inventors investigated the effect of BMPR2 signaling on pulmonary endothelial cell proliferation and survival. Human pulmonary artery […] cells (HPAEC) were grown in EBM-2 medium supplemented with 2% FBS and growth factors (Clonetics). Apoptosis was induced either by serum withdrawal (see FIG. 17) or exposure of cells to TNFα. […] Apoptosis was evaluated by three independent methods: 1) flow cytometry using Annexin V, a Ca2+ dependent phospholipid-binding protein with affinity for phosphatidylserine (PS; translocation of PS from the inner leaflet of plasma membrane to the outer layer occurs during the early stage of apoptosis), 2) TUNEL assay and, 3) caspase activity assay.

Test [2] has as its system Human pulmonary artery epithelial cells (HPAEC). Description: HPAEC apoptosis induced by serum withdrawal (flow cytometry Annexin V, TUNEL). In kind it is cell-based. The settings on record: pretreatment 100-200 ng/ml for 2 hours; flow cytometry and TUNEL assay. The procedure:
as §1

Turning to acetyl-DEVD-aldehyde, the anti-Fas induced apoptosis entry in the test on T-lymphocyte cell line is “inhibited”.
On to acetyl-YVAD-chloromethylketone, for which the death of motoneurons entry with motoneurons was “blocked”.
Take acetyl-YVAD-aldehyde: the death of motoneurons entry in the test on motoneurons is “blocked”.
In the case of `CC(C)(C)OC(=O)N[C@@H](CC(=O)OCc1ccccc1)C(=O)CCl` [Boc-D-(benzyl) chloromethylketone], the “cell death of mammary epithelial cells” value in the test on mammary epithelial cells is given as “prevented”.
As for Z-VAD, the inhibition of apoptosis entry with lung apoptosis after MCT (48 or 72 hours after the last treatment) was “less potent”; in the test on lung apoptosis after MCT (24 hours after the last treatment), “most effective”.

B1: BMP7: bone morphogenetic protein (protein, UniProt P18075 293-431, looked up)
Bone morphogenetic protein 7: STGSKQRSQNRSKTPKNQEALRMANVAENSSSDQRQACKKHELYVSFRDLGWQDWIIAPEGYAAYYCEGECAFPLNSYMNATNHAIVQTLVHFINPETVPKPCCAPTQLNAISVLYFDDSSNVILKKYRNMVVRACGCH
For B1, the “apoptosis induced by TNF treatment” value in test [1] is listed as “protect the cells from apoptosis”. Moreover, the “apoptosis induced by serum withdrawal” value in test [2] is given as “protected the cells from apoptosis”.
